Data as given in ChEMBL document CHEMBL1201862, “PubChem BioAssay data set” (2004).
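Cultured in 96-well plates, cells were exposed to test compound for 48 hours across five concentrations. GI50 = concentration required for 50% inhibition of growth.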 Active and inactive are the calls of the source. Cut-off read from the data, not from the text of the source: active = GI50 up to about 1.1 µM and inactive = higher.

How the values were obtained:
Test in all cases: DTP human tumour cell line panel, 48 h
DLD-1 = system: DLD-1
DMS-114 = system: DMS-114
DMS-273 = system: DMS-273
HOP-18 = system: HOP-18
KM-20L2 = system: KM-20L2
M19-MEL = system: M19-MEL
BT-549 = system: BT-549
XF498 = system: XF498

| Compound | GI50 (DLD-1) | GI50 (M19-MEL) | GI50 (BT-549) | other results |
| --- | --- | --- | --- | --- |
| Cc1c(NC(=S)NC(=O)c2ccc([N+](=O)[O-])cc2)c(=O)n(-c2ccccc2)n1C | > 100 µM (inactive) | > 100 µM (inactive) |  | GI50 (DMS-114): > 100 µM (inactive); GI50 (DMS-273): > 100 µM (inactive); GI50 (HOP-18): > 100 µM (inactive); GI50 (KM-20L2): > 100 µM (inactive) |
| CSc1nc(Br)nc2c1ncn2C1CC(Oc2ccc(C)cc2)C(COc2ccc(C)cc2)O1 (configuration not stated) |  |  | > 100 µM (inactive) |  |
| COc1cc(COC(=O)N2CC=CC2C(=O)O)c([N+](=O)[O-])cc1OC (configuration not stated) |  |  | > 100 µM (inactive) |  |
| N#CC1=C(Cl)NC(Cl)=C(C#N)C1c1c(Cl)cccc1Cl | 21.4 µM (inactive) |  |  | GI50 (DMS-114): 14.2 µM (inactive); GI50 (DMS-273): 19.6 µM (inactive); GI50 (HOP-18): 30.1 µM (inactive); GI50 (KM-20L2): 45.8 µM (inactive); GI50 (XF498): 13.9 µM (inactive) |
| Nc1nc2c(-c3ccc([N+](=O)[O-])cc3)nnn2c2ccccc12 | > 100 µM (inactive) | > 100 µM (inactive) |  | GI50 (DMS-273): > 100 µM (inactive); GI50 (HOP-18): > 100 µM (inactive); GI50 (XF498): 78.5 µM (inactive) |
| C=C(/C=C/C=C(\CO)CCC=C(C)C)[C@H]1CCC2([C@H](CCCO)/C(=C(/C)C=O)CC[C@]2(C)O)[C@H]1O (some centres not stated) | > 100 µM (inactive) | > 100 µM (inactive) |  | GI50 (DMS-114): > 100 µM (inactive); GI50 (DMS-273): > 100 µM (inactive); GI50 (HOP-18): 40.9 µM (inactive); GI50 (KM-20L2): > 100 µM (inactive); GI50 (XF498): > 100 µM (inactive) |
| C[C@]12CCC(=O)C=C1CC[C@@H]1C2CC[C@]2(C)c3nn(-c4ccccc4)nc3CC12 (some centres not stated) | > 100 µM (inactive) | > 100 µM (inactive) |  | GI50 (DMS-114): > 100 µM (inactive); GI50 (DMS-273): > 100 µM (inactive); GI50 (KM-20L2): > 100 µM (inactive); GI50 (XF498): > 100 µM (inactive) |
| CN(C)/C=N\c1nncc2[nH]cnc12 |  |  | > 100 µM (inactive) |  |
| CCc1cccc(CC)c1NC(=O)C1=C(C)NC(C)=C(C(=O)Nc2c(CC)cccc2CC)C1c1ccc([N+](=O)[O-])cc1 | 21.4 µM (inactive) | 21.3 µM (inactive) |  | GI50 (DMS-114): 15.4 µM (inactive); GI50 (KM-20L2): 26.7 µM (inactive); GI50 (XF498): 18.4 µM (inactive) |
| Cc1c(C(=O)OCc2ccccc2)[n+]([O-])c2cc(Cl)c(Cl)cc2[n+]1[O-] |  |  | 20.4 µM (inactive) |  |
| CC1=C(O)C(=O)C2C(=O)C1C(C)C2c1ccccc1 (configuration not stated) | > 100 µM (inactive) | > 100 µM (inactive) |  | GI50 (DMS-273): > 100 µM (inactive); GI50 (XF498): > 100 µM (inactive) |
| Nc1ncnc2nc(N3CCN(CCO)CC3)[nH]c12 |  |  | > 100 µM (inactive) |  |
| C[C@@H]1OC(=O)C[C@H]2CC(=O)N(CCC3CN(S(=O)(=O)C(F)(F)F)c4ccc(Cc5ccc6c(c5)C(CCN5C[C@H]7[C@@H](CC(=O)O[C@H]7C)CC5=O)CN6S(=O)(=O)C(F)(F)F)cc43)C[C@@H]21 (some centres not stated) |  |  | > 100 µM (inactive) |  |
| CC(=O)OC12c3ccccc3C(c3ccccc31)C1C(=O)N(c3ccccc3O)C(=O)C12 (configuration not stated) |  |  | > 100 µM (inactive) |  |
| CS(=O)(=O)O[C@H]1CN2C[C@@H](O)[C@@H](O)[C@H]2[C@H]1CO.[B] |  |  | > 100 µM (inactive) |  |
| CC(C)(C)c1cc(/C=C/C(=O)CC(=O)/C=C/c2cc(C(C)(C)C)c(O)c(C(C)(C)C)c2)cc(C(C)(C)C)c1O |  |  | > 50 µM (inactive) |  |
| N#Cc1c(-c2ccccc2)c(C#N)c(=S)n(C2OCC(O)C(O)C2O)c1N (configuration not stated) |  |  | > 100 µM (inactive) |  |
| CCCCCCCCCCCC(=O)c1c(O)cc(C)oc1=O |  |  | 87.1 µM (inactive) |  |
| O=C(NNC(=O)c1ccccc1O)c1cccc(Br)c1 |  |  | > 100 µM (inactive) |  |
| O=S(=O)(Sc1ccc(Cl)cc1)c1ccc(Cl)cc1 | 16.7 µM (inactive) | 17.9 µM (inactive) |  | GI50 (DMS-114): 15.1 µM (inactive); GI50 (DMS-273): 15.4 µM (inactive); GI50 (KM-20L2): 17.8 µM (inactive); GI50 (XF498): 20.2 µM (inactive) |
| CCN1CC2(C)CC[C@@H](OC)C34[C@@H]2[C@H](OC(C)=O)C2(OCO[C@@]25C[C@H](OC)C2C[C@]3(O)[C@@H]5[C@H]2O)[C@H]14 | > 100 µM (inactive) | > 100 µM (inactive) |  | GI50 (DMS-114): > 100 µM (inactive); GI50 (KM-20L2): > 100 µM (inactive) |
| N#CC(=S)Nc1ccc(Cl)c(Cl)c1 |  |  | 27 µM (inactive) |  |
| COc1cc2c(=O)cnoc2cc1O |  |  | > 100 µM (inactive) |  |
| CCCc1cc(=O)oc2c3c(c4c(c12)OC(C)(C)C=C4)O[C@@H](C)[C@H](C)C3=O |  |  | 13.7 µM (inactive) |  |
| O/N=C/C1c2ccccc2-c2ccccc21 |  |  | 16.9 µM (inactive) |  |
| O=C1c2ccccc2C(=O)N1CCN(CCN1C(=O)c2ccccc2C1=O)Cc1ccccc1 | > 100 µM (inactive) | > 100 µM (inactive) |  | GI50 (DMS-114): > 100 µM (inactive); GI50 (DMS-273): > 100 µM (inactive); GI50 (KM-20L2): > 100 µM (inactive); GI50 (XF498): > 100 µM (inactive) |
| O=C(O)C1CC(O)CN1 (configuration not stated) |  |  | > 100 µM (inactive) |  |
